Our source for the IC50 values is ChEMBL document CHEMBL3132846 (Medchemcomm, 2014).

A value given as a limit tells only on which side of the number the result lay.

What all share (format): functional, cell-based
The test system of one test is A549. Description: Cytotoxicity against human A549 cells after 48 hrs by MTT assay. The conditions noted are these: A549, 48 h. For orientation: Tetrazolium assays rely on reduction of a dye to a coloured formazan, in cell work by metabolically active cells.
For another test, the system named is HeLa. Put plainly: Cytotoxicity against human HeLa cells after 48 hrs by MTT assay.
The next test has as its system BeWo. Description: Cytotoxicity against human Bewo cells after 48 hrs by MTT assay.
For a further test, the system named is HL-60. Description: Cytotoxicity against human HL60 cells after 48 hrs by MTT assay. Particulars: HL-60, 48 h.
Another test concerns SiHa. Description: Cytotoxicity against human SiHa cells after 48 hrs by MTT assay.
The test system of another test is Ishikawa. Description: Cytotoxicity against human Ishikawa cells after 48 hrs by MTT assay.
The test system of the next test is MCF7. Put plainly: Cytotoxicity against human MCF7 cells after 48 hrs by MTT assay. Particulars: MCF7, 48 h.
Test [1] can be described thus: Cytotoxicity against human Bel7402 cells after 48 hrs by MTT assay. Particulars: Bel-7402, 48 h.
Test [2] in a line: Cytotoxicity against human BGC823 cells after 48 hrs by MTT assay. The conditions noted are these: BGC-823, 48 h.
Test [3] can be described thus: Cytotoxicity against human NCI-460 cells after 48 hrs by MTT assay. The conditions noted are these: NCI-460, 48 h.

In the case of `COc1c(O)ccc(/C=N/NC(=O)Cc2cccc3c(=O)c4ccc(C)c(C)c4oc23)c1[N+](=O)[O-]`, the IC50 – broadly, the midpoint of a concentration-inhibition curve – with A549 is above 100 µM.
Turning to `Cc1ccc2c(=O)c3cccc(CC(=O)N/N=C/c4ccc(O)cc4)c3oc2c1C`, the IC50 with HeLa was above 100 µM; with BeWo, 73.7 µM; with HL-60, above 100 µM; with SiHa, above 100 µM; with A549, 35.9 µM; in the test with Ishikawa it was above 100 µM. Also, the IC50 in the test with MCF7 was above 100 µM.
Turning to `Cc1ccc2c(=O)c3cccc(CC(=O)Nc4ccc(F)c(Cl)c4)c3oc2c1C`, the IC50 was 94.2 µM with HeLa; above 100 µM with BeWo; 76.1 µM in the test on HL-60; 32.4 µM in the test with SiHa; 25.8 µM in the test on A549; above 100 µM in the test with Ishikawa. The compound also came in with an IC50 in the test on MCF7 above 100 µM.
Regarding `COc1ccc(/C=C\c2cc(OC)c(OC)c(OC)c2)cc1O` [COMBRETASTATIN A4], the IC50 with HeLa was 14.8 µM; in the test with BeWo, 12.7 µM; in the test with HL-60 it was below 0.03 µM; with SiHa, above 100 µM; with Ishikawa, 20.1 µM; in the test with MCF7, 25.5 µM.
Take `CCOC(=O)CCNC(=O)Cc1cccc2c(=O)c3ccc(C)c(C)c3oc12`: the IC50 is above 100 µM with HeLa; above 100 µM in [1]; 26.2 µM in the test on BeWo; 79.9 µM with HL-60; 76.4 µM in test [2]; 98 µM with SiHa. The IC50 was 35 µM in the test on A549, above 100 µM in the test on Ishikawa, above 100 µM in [3] and 40.6 µM in the test with MCF7.
`CCCCNC(=O)Cc1cccc2c(=O)c3ccc(C)c(C)c3oc12`: the IC50 was above 100 µM in the test with HeLa; above 100 µM with BeWo; 44.7 µM in the test on HL-60; above 100 µM in the test on SiHa; 46.9 µM in the test on A549; above 100 µM with Ishikawa. This compound also registered an IC50 in the test on MCF7 of 43.8 µM.
In the case of `CCOC(=O)CNC(=O)Cc1cccc2c(=O)c3ccc(C)c(C)c3oc12`, the IC50 with HeLa is above 100 µM; with BeWo, above 100 µM; with HL-60, above 100 µM; with SiHa, above 100 µM; in the test with A549, 42.9 µM; with Ishikawa it was 61.9 µM. In the test on MCF7, this compound gave an IC50 of 46.4 µM.
`COc1cc(/C=N/NC(=O)Cc2cccc3c(=O)c4ccc(C)c(C)c4oc23)ccc1O` returned an IC50 in the test on A549 above 100 µM.
On to `Cc1ccc2c(=O)c3cccc(CC(=O)Nc4ccc(Cl)cn4)c3oc2c1C`, for which the half-inhibitory concentration (IC50) in the test on HeLa was above 100 µM; in the test with BeWo, above 100 µM; with HL-60, 80.9 µM; in the test on SiHa, above 100 µM; in the test on A549, above 100 µM; with Ishikawa it was above 100 µM. In addition, the midpoint of inhibition in the test on MCF7, the IC50, lay at 95.9 µM.
Turning to `COc1cc(/C=N/NC(=O)Cc2cccc3c(=O)c4ccc(C)c(C)c4oc23)cc(OC)c1OC`, the IC50 in the test on HeLa is above 100 µM; in the test on BeWo, above 100 µM; in the test with HL-60, above 100 µM; in the test on SiHa it was above 100 µM; in the test on A549, 15.7 µM; with Ishikawa, above 100 µM. In the test with MCF7, this compound showed an IC50 above 100 µM.
`COc1ccc(/C=N/NC(=O)Cc2cccc3c(=O)c4ccc(C)c(C)c4oc23)cc1`: the IC50 in the test with HeLa is above 100 µM; in the test on BeWo, above 100 µM; in the test on HL-60, above 100 µM; in the test on SiHa it was above 100 µM; in the test with A549, above 100 µM; in the test on Ishikawa it was 91.2 µM. In the test with MCF7, this compound displayed an IC50 above 100 µM.
Consider `Cc1ccc2c(=O)c3cccc(CC(=O)Nc4ccc([N+](=O)[O-])c(C(F)(F)F)c4)c3oc2c1C`, for which the IC50 in the test on HeLa is above 100 µM; in the test on BeWo it was above 100 µM; in the test on HL-60 it was 93.8 µM; in the test with SiHa, 63.2 µM; with A549 it was above 100 µM; in the test with Ishikawa, above 100 µM. In the test on MCF7, this compound gave an IC50 above 100 µM.
In the test with A549, `Cc1ccc2c(=O)c3cccc(CC(=O)N/N=C/c4ccc(O)c(O)c4)c3oc2c1C` displayed an IC50 above 100 µM.
